From US20250176599A1, “FLAVOR COMPOSITION AND FOOD AND BEVERAGE” (TAKASAGO INTERNATIONAL CORPORATION, priority 2021, published 2025)

Assays:
[1] = Sensory evaluation of degradation component-added shortening I ((E)-2-octenal 500 ppb); conditions: average panel score
Experimental: (§1) To commercially available shortening (“Pampas LTR30” manufactured by Fuji Oil Co., Ltd.), each degradation component was added to prepare degradation component-added shortenings I and II at the concentrations listed in Table 17. To these degradation component-added shortenings, β-ionone was added at the concentrations listed in Table 18 to confirm the intensity of the off-flavor (masking effect) and the intensity of the masking components (impact on the flavor of the shortening itself) for each sample.
Eight experienced panelists were selected to conduct a sensory evaluation similar to that of Example 1. […]

[2] = Sensory evaluation of degradation component-added shortening II (1,5-octadien-3-one 1 ppb); conditions: average panel score
Experimental: as §1
(§2) Eight experienced panelists were selected to conduct a sensory evaluation similar to that of Example 1.
(§3) The same method as in Example 16 was used to confirm the intensity of the off-flavor (masking effect) derived from unsaturated fatty acids by β-damascenone and the intensity of the masking components (impact on the flavor of the shortening itself).

[3] = Overall conclusion of the sensory evaluation across shortenings I and II
Experimental: as §1, §2, §3

[4] = Sensory evaluation of degradation component-added mayonnaise II (1,5-octadien-3-one 5 ppm)
Experimental: To commercially available mayonnaise (“Kewpie Mayonnaise” manufactured by Kewpie Corporation), each degradation component was added to prepare degradation component-added mayonnaises I and II at the concentrations listed in Table 20. To these degradation component-added mayonnaises, oleic acid was added at the concentrations listed in Table 21 to confirm the intensity of the off-flavor (masking effect) and the intensity of the masking components (impact on the flavor of the mayonnaise itself) for each sample.
Six experienced panelists were selected to conduct a sensory evaluation similar to that of Example 1.
To the degradation component-added mayonnaise II listed in Table 20, menthyl 3-hydroxybutyrate was added at the concentrations listed in Table 22 to confirm the intensity of the off-flavor (masking effect) and the intensity of the masking component (impact on the flavor of the mayonnaise itself) for each sample.

Compound: C/C=C/C(=O)C1=C(C)C=CCC1(C)C [β-Damascenone, β-damascenone]
- Masking Component Intensity ([1]; 1 ppb added): 2.9
- Off-Flavor Intensity ([1]; 1 ppb added): 1.8
- Masking Component Intensity ([1]; 1 ppt added): 1.1
- Off-Flavor Intensity ([1]; 1 ppt added): 3.1
- Masking Component Intensity ([1]; 10 ppb added): 3.1
- Off-Flavor Intensity ([1]; 10 ppb added): 1.1
- Masking Component Intensity ([1]; 10 ppt added): 1.5
- Off-Flavor Intensity ([1]; 10 ppt added): 2.6
- Masking Component Intensity ([1]; 100 ppt added): 2.1
- Off-Flavor Intensity ([1]; 100 ppt added): 2.3
- Masking Component Intensity ([2]; 1 ppb added): 2.5
- Off-Flavor Intensity ([2]; 1 ppb added): 2.3
- Masking Component Intensity ([2]; 1 ppt added): 0.9
- Off-Flavor Intensity ([2]; 1 ppt added): 3.4
- Masking Component Intensity ([2]; 10 ppb added): 2.6
- Off-Flavor Intensity ([2]; 10 ppb added): 2.0
- Masking Component Intensity ([2]; 10 ppt added): 1.3
- Off-Flavor Intensity ([2]; 10 ppt added): 3.0
- Masking Component Intensity ([2]; 100 ppt added): 1.9
- Off-Flavor Intensity ([2]; 100 ppt added): 2.5
- concentration that masks the off-flavor and does not affect the flavor of the shortening itself, upper limit [3]: ≤ 10 ppb

Compound: CC(O)CC(=O)OC1CC(C)CCC1C(C)C (stereo not shown) [menthyl 3-hydroxybutyrate]
- concentration that masks the off-flavor and does not affect the flavor of the mayonnaise itself, lower limit [4]: ≥ 100 ppt
- concentration that masks the off-flavor and does not affect the flavor of the mayonnaise itself, upper limit [4]: ≤ 100 ppm
- Masking Component Intensity ([4]; 1 ppb added): 0.2
- Off-Flavor Intensity ([4]; 1 ppb added): 3.0
- Masking Component Intensity ([4]; 1 ppm added): 0.6
- Off-Flavor Intensity ([4]; 1 ppm added): 0.8
- Masking Component Intensity ([4]; 10 ppb added): 0.2
- Off-Flavor Intensity ([4]; 10 ppb added): 2.2
- Masking Component Intensity ([4]; 10 ppm added): 1.0
- Off-Flavor Intensity ([4]; 10 ppm added): 0.6
- Masking Component Intensity ([4]; 50 ppm added): 1.6
- Off-Flavor Intensity ([4]; 50 ppm added): 0.6
- Masking Component Intensity ([4]; 100 ppb added): 0.4
- Off-Flavor Intensity ([4]; 100 ppb added): 1.6
- Masking Component Intensity ([4]; 100 ppm added): 2.0
- Off-Flavor Intensity ([4]; 100 ppm added): 0.6
- Masking Component Intensity ([4]; 100 ppt added): 0.2
- Off-Flavor Intensity ([4]; 100 ppt added): 3.0

Compound: CC(=O)/C=C/C1=C(C)CCCC1(C)C [β-Ionone, β-ionone]
- Masking Component Intensity ([1]; 1 ppb added): 2.1
- Off-Flavor Intensity ([1]; 1 ppb added): 1.5
- Masking Component Intensity ([1]; 1 ppt added): 0.6
- Off-Flavor Intensity ([1]; 1 ppt added): 3.1
- Masking Component Intensity ([1]; 10 ppb added): 2.6
- Off-Flavor Intensity ([1]; 10 ppb added): 1.1
- Masking Component Intensity ([1]; 10 ppt added): 1.1
- Off-Flavor Intensity ([1]; 10 ppt added): 2.6
- Masking Component Intensity ([1]; 100 ppt added): 1.8
- Off-Flavor Intensity ([1]; 100 ppt added): 2.4
- Masking Component Intensity ([2]; 1 ppb added): 1.9
- Off-Flavor Intensity ([2]; 1 ppb added): 2.4
- Masking Component Intensity ([2]; 1 ppt added): 0.4
- Off-Flavor Intensity ([2]; 1 ppt added): 3.6
- Masking Component Intensity ([2]; 10 ppb added): 2.3
- Off-Flavor Intensity ([2]; 10 ppb added): 2.0
- Masking Component Intensity ([2]; 10 ppt added): 0.9
- Off-Flavor Intensity ([2]; 10 ppt added): 3.4
- Masking Component Intensity ([2]; 100 ppt added): 1.5
- Off-Flavor Intensity ([2]; 100 ppt added): 2.8
- concentration that masks the off-flavor and does not affect the flavor of the shortening itself, lower limit [3]: ≥ 10 ppt
- concentration that masks the off-flavor and does not affect the flavor of the shortening itself, upper limit [3]: ≤ 10 ppb
